Experimental data as given in US9242970B2 (ACTELION PHARMACEUTICALS LTD., priority 2010, dated 2016).
pIC50: −log10 of the molar value. Where two headings read alike, the source gives them in different places.

What was measured:
[1] = target: human orexin-1 receptor (Homo sapiens (Human), UniProt O43613); assay: In vitro assay: intracellular calcium measurements (FLIPR), antagonistic activity; type: cell-based; settings: CHO cells, 3 nM orexin-A, marked values are geometric means of n = 2-6, read-out: IC50 OX1
Chain of human orexin-1 receptor (O43613 whole entry): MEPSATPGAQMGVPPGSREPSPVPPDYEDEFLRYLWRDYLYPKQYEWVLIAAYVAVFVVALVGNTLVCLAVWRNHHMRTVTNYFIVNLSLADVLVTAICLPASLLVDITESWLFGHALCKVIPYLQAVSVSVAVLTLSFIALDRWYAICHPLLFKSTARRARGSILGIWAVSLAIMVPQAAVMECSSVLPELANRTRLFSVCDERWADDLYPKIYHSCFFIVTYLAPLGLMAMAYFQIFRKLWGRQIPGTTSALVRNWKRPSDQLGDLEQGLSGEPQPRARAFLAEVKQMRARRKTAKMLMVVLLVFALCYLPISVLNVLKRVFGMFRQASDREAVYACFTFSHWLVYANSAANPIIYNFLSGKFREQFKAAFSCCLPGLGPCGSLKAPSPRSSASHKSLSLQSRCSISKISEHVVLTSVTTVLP

[2] = target: human orexin-2 receptor (Homo sapiens (Human), UniProt O43614); assay: as above; type: cell-based; settings: CHO cells, 3 nM orexin-A, marked values are geometric means of n = 2-6, read-out: IC50 OX2
Chain of human orexin-2 receptor (O43614 whole entry): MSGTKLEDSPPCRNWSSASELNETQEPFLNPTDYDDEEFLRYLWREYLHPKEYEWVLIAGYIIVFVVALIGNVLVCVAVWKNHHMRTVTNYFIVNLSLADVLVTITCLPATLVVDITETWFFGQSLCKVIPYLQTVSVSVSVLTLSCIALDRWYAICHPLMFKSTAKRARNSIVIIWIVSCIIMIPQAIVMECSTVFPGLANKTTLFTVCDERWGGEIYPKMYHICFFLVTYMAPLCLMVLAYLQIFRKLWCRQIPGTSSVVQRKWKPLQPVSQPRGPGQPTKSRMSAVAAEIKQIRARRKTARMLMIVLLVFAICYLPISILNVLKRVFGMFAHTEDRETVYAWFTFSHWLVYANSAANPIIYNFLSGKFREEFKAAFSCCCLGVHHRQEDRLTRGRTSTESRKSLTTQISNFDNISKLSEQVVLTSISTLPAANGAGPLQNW

[3] = compound incubation time of 10 min

**Q.** What does the source list for `COc1cccc(OC)c1C1CC(C)C(=O)N1Cc1cccc(-c2cncs2)c1` (stereo not shown) [Example 147, 5-(2,6-dimethoxyphenyl)-3-methyl-1-(3-(thiazol-5-yl)benzyl)pyrrolidin-2-one]?
**A.** pIC50 ([1]; compound incubation 120 min): 7.70; pIC50 ([2]; compound incubation 120 min): 6.94

**Q.** With `COc1cccc(OC)c1C1CC(C)C(=O)N1Cc1cccc(-c2ncc(C)s2)c1` (stereo not shown) [Example 148, 5-(2,6-dimethoxyphenyl)-3-methyl-1-(3-(5-methylthiazol-2-yl)benzyl)pyrrolidin-2-one] as the compound, how does the pIC50 ([1]; compound incubation 120 min) read?
**A.** 8.52

**Q.** What about the pIC50 ([2]; compound incubation 120 min) of the same compound?
**A.** 7.68

**Q.** With `COc1cccc(OC)c1C1CC(C)C(=O)N1Cc1cccc(-n2nccn2)c1` (stereo not shown) [Example 149, 1-(3-(2H-1,2,3-triazol-2-yl)benzyl)-5-(2,6-dimethoxyphenyl)-3-methylpyrrolidin-2-one] as the compound, how does the pIC50 ([1]; compound incubation 120 min) read?
**A.** 8.22

**Q.** What about the pIC50 ([2]; compound incubation 120 min) of the same compound?
**A.** 7.11

**Q.** With `COc1cccc(OC)c1C1CC(C)C(=O)N1Cc1cccc(-c2cscn2)c1` (stereo not shown) [Example 150, 5-(2,6-dimethoxyphenyl)-3-methyl-1-(3-(thiazol-4-yl)benzyl)pyrrolidin-2-one] as the compound, how does the pIC50 ([1]; compound incubation 120 min) read?
**A.** 8.15

**Q.** And the pIC50 ([2]; compound incubation 120 min)?
**A.** 7.33

**Q.** `COc1cccc(OC)c1C1CC(C)C(=O)N1Cc1ccc2nc(C)sc2c1` (stereo not shown) [Example 151, 5-(2,6-dimethoxyphenyl)-3-methyl-1-((2-methylbenzo[d]thiazol-6-yl)methyl)pyrrolidin-2-one] was tested. Which pIC50 ([1]; compound incubation 120 min) did it give?
**A.** 6.90

**Q.** What about the pIC50 ([2]; compound incubation 120 min) of the same compound?
**A.** 6.15

**Q.** Which results are given for `COc1cccc(OC)c1C1CC(C)C(=O)N1Cc1cc(Cl)cc(-c2ccccn2)c1` (stereo not shown) [Example 152, 1-(3-chloro-5-(pyridin-2-yl)benzyl)-5-(2,6-dimethoxyphenyl)-3-methylpyrrolidin-2-one]?
**A.** pIC50 ([1]; compound incubation 120 min): 7.13; pIC50 ([2]; compound incubation 120 min): 6.57

**Q.** With `COc1cccc(OC)c1C1CC(C)C(=O)N1Cc1ccc(F)c(-c2ccccn2)c1` (stereo not shown) [Example 153, 5-(2,6-dimethoxyphenyl)-1-(4-fluoro-3-(pyridin-2-yl)benzyl)-3-methylpyrrolidin-2-one] as the compound, how does the pIC50 ([1]; compound incubation 120 min) read?
**A.** 8.10

**Q.** What about the pIC50 ([2]; compound incubation 120 min) of the same compound?
**A.** 6.91

**Q.** What does the source list for `COc1cccc(OC)c1C1CC(C)C(=O)N1Cc1ccnc(-n2cccn2)c1` (stereo not shown) [Example 154, 1-((2-(1H-pyrazol-1-yl)pyridin-4-yl)methyl)-5-(2,6-dimethoxyphenyl)-3-methylpyrrolidin-2-one]?
**A.** pIC50 ([1]; compound incubation 120 min): 8.00; pIC50 ([2]; compound incubation 120 min): 6.69

**Q.** `COc1cccc(OC)c1C1CC(C)C(=O)N1Cc1cccc(-n2cccn2)n1` (stereo not shown) [Example 155, 1-((6-(1H-pyrazol-1-yl)pyridin-2-yl)methyl)-5-(2,6-dimethoxyphenyl)-3-methylpyrrolidin-2-one] was tested. Which pIC50 ([1]; compound incubation 120 min) did it give?
**A.** 6.87

**Q.** And the pIC50 ([2]; compound incubation 120 min)?
**A.** 5.93

**Q.** `COc1cccc(OC)c1C1CCCC(=O)N1Cc1ccc(OC(F)(F)F)cc1` (stereo not shown) [Example 156, 6-(2,6-dimethoxyphenyl)-1-(4-(trifluoromethoxy)benzyl)piperidin-2-one] was tested. Which pIC50 [1, 3] did it give?
**A.** 6.59

**Q.** And the pIC50 [2, 3]?
**A.** 7.66

**Q.** Which results are given for `COc1cccc(OC)c1C1CCCC(=O)N1Cc1ccc(F)cc1` (stereo not shown) [Example 157, 6-(2,6-dimethoxyphenyl)-1-(4-fluorobenzyl)piperidin-2-one]?
**A.** pIC50 [1, 3]: 5.83; pIC50 [2, 3]: 6.64

**Q.** With `COc1cccc(OC)c1C1CCCC(=O)N1Cc1ccc(Cl)cc1` (stereo not shown) [Example 158, 1-(4-chlorobenzyl)-6-(2,6-dimethoxyphenyl)piperidin-2-one] as the compound, how does the pIC50 [1, 3] read?
**A.** 6.15

**Q.** What about the pIC50 [2, 3] of the same compound?
**A.** 6.81

**Q.** Which results are given for `COc1ccc(CN2C(=O)CCCC2c2c(OC)cccc2OC)cc1` (stereo not shown) [Example 159, 6-(2,6-dimethoxyphenyl)-1-(4-methoxybenzyl)piperidin-2-one]?
**A.** pIC50 [1, 3]: 6.16; pIC50 [2, 3]: 6.40

**Q.** `COc1cccc(OC)c1C1CCCC(=O)N1Cc1ccc(OC(F)(F)F)c(F)c1` (stereo not shown) [Example 160, 6-(2,6-dimethoxyphenyl)-1-(3-fluoro-4-(trifluoromethoxy)benzyl)piperidin-2-one] was tested. Which pIC50 [1, 3] did it give?
**A.** 6.62

**Q.** And the pIC50 [2, 3]?
**A.** 7.74

**Q.** Which results are given for `COc1cccc(OC)c1C1CCCC(=O)N1Cc1ccc(OC(F)(F)F)c(Cl)c1` (stereo not shown) [Example 161, 1-(3-chloro-4-(trifluoromethoxy)benzyl)-6-(2,6-dimethoxyphenyl)piperidin-2-one]?
**A.** pIC50 [1, 3]: 6.83; pIC50 [2, 3]: 7.21

**Q.** How did the pIC50 [1, 3] turn out when `COc1cccc(OC)c1C1CCCC(=O)N1Cc1ccc(SC(F)(F)F)cc1` (stereo not shown) [Example 162, 6-(2,6-dimethoxyphenyl)-1-(4-((trifluoromethyl)thio)benzyl)piperidin-2-one] was run?
**A.** 5.88

**Q.** And the pIC50 [2, 3]?
**A.** 7.21

**Q.** `COc1cccc(OC)c1C1CCCC(=O)N1Cc1ccc(C(F)(F)F)cc1` (stereo not shown) [Example 163, 6-(2,6-dimethoxyphenyl)-1-(4-(trifluoromethyl)benzyl)piperidin-2-one] was tested. Which pIC50 [1, 3] did it give?
**A.** 5.92

**Q.** And the pIC50 [2, 3]?
**A.** 6.77

**Q.** What does the source list for `COc1cccc(OC)c1C1CCCC(=O)N1Cc1ccc(Oc2ccccc2)cc1` (stereo not shown) [Example 164, 6-(2,6-dimethoxyphenyl)-1-(4-phenoxybenzyl)piperidin-2-one]?
**A.** pIC50 [1, 3]: 6.39; pIC50 [2, 3]: 7.57

**Q.** `COc1cccc(OC)c1C1CCCC(=O)N1Cc1ccc(OC(F)F)cc1` (stereo not shown) [Example 165, 1-(4-(difluoromethoxy)benzyl)-6-(2,6-dimethoxyphenyl)piperidin-2-one] was tested. Which pIC50 [1, 3] did it give?
**A.** 6.65

**Q.** What about the pIC50 [2, 3] of the same compound?
**A.** 7.51

**Q.** How did the pIC50 [1, 3] turn out when `COc1cccc(OC)c1C1CCCC(=O)N1Cc1ccc2c(c1)OCO2` (stereo not shown) [Example 166, 1-(benzo[d][1,3]dioxol-5-ylmethyl)-6-(2,6-dimethoxyphenyl)piperidin-2-one] was run?
**A.** 5.76

**Q.** And the pIC50 [2, 3]?
**A.** 6.26

**Q.** `COc1cc(Cl)cc(OC)c1C1CCCC(=O)N1Cc1ccc(OC(F)(F)F)cc1` (stereo not shown) [Example 167, 6-(4-chloro-2,6-dimethoxyphenyl)-1-(4-(trifluoromethoxy)benzyl)piperidin-2-one] was tested. Which pIC50 [1, 3] did it give?
**A.** 6.64

**Q.** And the pIC50 [2, 3]?
**A.** 7.55

**Q.** `COc1cccc(OC)c1C1CCCC(=O)N1Cc1ccc(-n2cccn2)cc1` (stereo not shown) [Example 168, 1-(4-(1H-pyrazol-1-yl)benzyl)-6-(2,6-dimethoxyphenyl)piperidin-2-one] was tested. Which pIC50 [1, 3] did it give?
**A.** 5.74

**Q.** What about the pIC50 [2, 3] of the same compound?
**A.** 6.34

**Q.** Which results are given for `COc1cccc(OC)c1C1CCCC(=O)N1Cc1ccc(-n2cccc2)cc1` (stereo not shown) [Example 169, 1-(4-(1H-pyrrol-1-yl)benzyl)-6-(2,6-dimethoxyphenyl)piperidin-2-one]?
**A.** pIC50 [1, 3]: 5.80; pIC50 [2, 3]: 6.72

**Q.** Which results are given for `COc1cccc(OC)c1C1CCCC(=O)N1Cc1ccc2nonc2c1` (stereo not shown) [Example 170, 1-(benzo[c][1,2,5]oxadiazol-5-ylmethyl)-6-(2,6-dimethoxyphenyl)piperidin-2-one]?
**A.** pIC50 [1, 3]: 5.62; pIC50 [2, 3]: 6.12

**Q.** `COc1ccc2cc(CN3C(=O)CCCC3c3c(OC)cccc3OC)ccc2c1` (stereo not shown) [Example 171, 6-(2,6-dimethoxyphenyl)-1-((6-methoxynaphthalen-2-yl)methyl)piperidin-2-one] was tested. Which pIC50 [1, 3] did it give?
**A.** 6.91

**Q.** And the pIC50 [2, 3]?
**A.** 7.18

**Q.** What does the source list for `COc1cc(OC)c(C2CCCC(=O)N2Cc2ccc(OC(F)(F)F)cc2)c(OC)c1` (stereo not shown) [Example 172, 1-(4-(trifluoromethoxy)benzyl)-6-(2,4,6-trimethoxyphenyl)piperidin-2-one]?
**A.** pIC50 [1, 3]: 6.48; pIC50 [2, 3]: 6.97

**Q.** `COc1cccc(OC)c1C1CC(C)CC(=O)N1Cc1ccc(OC(F)(F)F)cc1` (stereo not shown) [Example 173, 6-(2,6-dimethoxyphenyl)-4-methyl-1-(4-(trifluoromethoxy)benzyl)piperidin-2-one] was tested. Which pIC50 [1, 3] did it give?
**A.** 6.27

**Q.** What about the pIC50 [2, 3] of the same compound?
**A.** 6.53

**Q.** What does the source list for `COc1cccc(OC)c1C1CC(C)(C)CC(=O)N1Cc1ccc(OC(F)(F)F)cc1` (stereo not shown) [Example 174, 6-(2,6-dimethoxyphenyl)-4,4-dimethyl-1-(4(trifluoromethoxy)benzyl)piperidin-2-one]?
**A.** pIC50 [1, 3]: 5.74; pIC50 [2, 3]: 5.97

**Q.** Which results are given for `COc1cccc(OC)c1C1CCCC(=O)N1Cc1cccc(OC(F)(F)F)c1` (stereo not shown) [Example 175, 6-(2,6-dimethoxyphenyl)-1-(3-(trifluoromethoxy)benzyl)piperidin-2-one]?
**A.** pIC50 [1, 3]: 6.87; pIC50 [2, 3]: 7.03

**Q.** With `COc1cccc(OC)c1C1CCCC(=O)N1Cc1ccc(OCCF)cc1` (stereo not shown) [Example 176, 6-(2,6-dimethoxyphenyl)-1-(4-(2-fluoroethoxy)benzyl)piperidin-2-one] as the compound, how does the pIC50 [1, 3] read?
**A.** 6.49

**Q.** What about the pIC50 [2, 3] of the same compound?
**A.** 7.21

**Q.** How did the pIC50 [1, 3] turn out when `COc1cccc(OC)c1C1CCCC(=O)N1Cc1ccc(OC(F)F)nc1` (stereo not shown) [Example 177, 1-((6-(difluoromethoxy)pyridin-3-yl)methyl)-6-(2,6-dimethoxyphenyl)piperidin-2-one] was run?
**A.** 6.45

**Q.** And the pIC50 [2, 3]?
**A.** 7.04

**Q.** With `COc1cccc(OC)c1C1CCCC(=O)N1Cc1cccc(OC(F)F)c1` (stereo not shown) [Example 178, 1-(3-(difluoromethoxy)benzyl)-6-(2,6-dimethoxyphenyl)piperidin-2-one] as the compound, how does the pIC50 [1, 3] read?
**A.** 6.67

**Q.** And the pIC50 [2, 3]?
**A.** 7.11

**Q.** Which results are given for `COc1cccc(OC)c1C1CCCC(=O)N1Cc1cccc(Oc2ccccc2)c1` (stereo not shown) [Example 179, 6-(2,6-dimethoxyphenyl)-1-(3-phenoxybenzyl)piperidin-2-one]?
**A.** pIC50 [1, 3]: 6.65; pIC50 [2, 3]: 7.38

**Q.** How did the pIC50 [1, 3] turn out when `COc1cccc(OC)c1C1CCCC(=O)N1Cc1cc2ccccc2o1` (stereo not shown) [Example 180, 1-(benzofuran-2-ylmethyl)-6-(2,6-dimethoxyphenyl)piperidin-2-one] was run?
**A.** 5.84

**Q.** What about the pIC50 [2, 3] of the same compound?
**A.** 6.77

**Q.** What does the source list for `COc1cccc(OC)c1C1CCCC(=O)N1Cc1cc2ccccc2s1` (stereo not shown) [Example 181, 1-(benzo[b]thiophen-2-ylmethyl)-6-(2,6-dimethoxyphenyl)piperidin-2-one]?
**A.** pIC50 [1, 3]: 6.09; pIC50 [2, 3]: 6.60

**Q.** What does the source list for `COc1cccc(OC)c1C1CCCC(=O)N1Cc1ccc2c(c1)OC(F)(F)O2` (stereo not shown) [Example 182, 1-((2,2-difluorobenzo[d][1,3]dioxol-5-yl)methyl)-6-(2,6-dimethoxyphenyl)piperidin-2-one]?
**A.** pIC50 [1, 3]: 6.55; pIC50 [2, 3]: 6.75

**Q.** With `COc1cccc(OC)c1C1CCCC(=O)N1Cc1cccc(OC(F)F)n1` (stereo not shown) [Example 183, 1-((6-(difluoromethoxy)pyridin-2-yl)methyl)-6-(2,6-dimethoxyphenyl)piperidin-2-one] as the compound, how does the pIC50 [1, 3] read?
**A.** 6.19

**Q.** And the pIC50 [2, 3]?
**A.** 7.19

**Q.** Which results are given for `COc1cccc(OC)c1C1CCCC(=O)N1C(C)c1cnc(OC(F)F)c(Cl)c1` (stereo not shown) [Example 185, 1-(1-(5-chloro-6-(difluoromethoxy)pyridin-3-yl)ethyl)-6-(2,6-dimethoxyphenyl)piperidin-2-one]?
**A.** pIC50 [1, 3]: 6.49; pIC50 [2, 3]: 7.47
